Assay results: patent US9381257B2, “Triarylmethyl radicals” (BRACCO IMAGING S.P.A., priority 2012, dated 2016)

Legend:
[1] = Precipitation of the radical on aqueous dissolution and removal by mechanical filtration (UV-Vis check of filtrate); type: physicochemical
Protocol: The sample was dissolved in 6 ml 40 mM phosphate buffer pH 7.3+100 mg/l EDTA. A time series of 1D 13C-NMR spectra were recorded with a total delay between the pulses of 3 s. The liquid state polarization was 14% after 12 s transfer time. The pH was 7.3 in the dissolved sample.
The sample was dissolved in 6 ml 40 mM phosphate buffer pH 7.3+100 mg/l EDTA. A time series of 1D 13C-NMR spectra were recorded with a total delay between the pulses of 3 s. The liquid state polarization was 15% after 12 s transfer time. The pH was 7.3 in the dissolved sample. The sample was filtered through a syringe filter (Acrodisk 25 mm PVDF filter, 0.45 μm pore size). Filtration of the full volume was completed in <3 s. […] Since the high extinction coefficients of the trityl radicals allow reliable determination of concentration down to approximately 1-1.5 μM, the concentration in the filtrate was below these values. The radical was removed to >99%.

[2] = DNP polarization build-up and dissolution of ethylacetoacetate with the radical as polarizing agent; conditions: 18 mM radical in 15-Crown-5 / 1,3-13C2 ethylacetoacetate; DNP at 1.2 K, 3.35 T, microwave irradiation
Protocol: Radical 1 (1.50 mg, 1.4 μmol) was dissolved in 15-Crown-5 (60.5 μl, 67.2 mg) to make a 24 mM solution. To 30 μl (33.7 mg) of this solution was added 1,3-^13C2 ethylacetoacetate (10.5 mg, 79 μmol, 158 μmol ^13C). The radical 1 concentration in the mixture was 18 mM.
43 mg of the composition prepared above were transferred from the Eppendorf tube to a sample cup and the sample cup was inserted into a DNP polarizer. The composition was polarised under DNP conditions at 1.2 K in a 3.35 T magnetic field under irradiation with microwave (93.900 GHz). The calculated solid-state polarization was 17% and the polarization build-up constant was 900 s.
The sample was dissolved in 6 ml 40 mM phosphate buffer pH 7.3+100 mg/l EDTA. A time series of 1D 13C-NMR spectra were recorded with a total delay between the pulses of 3 s. The liquid state polarization was 14% after 12 s transfer time. The pH was 7.3 in the dissolved sample. […]
43 mg of the composition prepared above were transferred from the Eppendorf tube to a sample cup and the sample cup was inserted into a DNP polarizer. […] The calculated solid-state polarization was 18% and the polarization build-up constant was 1700 s.
The sample was dissolved in 6 ml 40 mM phosphate buffer pH 7.3+100 mg/l EDTA. A time series of 1D 13C-NMR spectra were recorded with a total delay between the pulses of 3 s. […]

## tris{8-carboxyl-2,2,6,6-tetramethyl-benzo(1,2-d:4,5-dS)bis(1,3)dithiole-4-yl}methyl sodium salt [Radical 1, reference compound]
[1]; after water dissolution
  removal of the radical by mechanical filtration: cannot be removed by mechanical filtration
[1]; dissolved in 6 ml 40 mM phosphate buffer pH 7.3 + 100 mg/l EDTA
  precipitation of the radical in water dissolution: does not precipitate
[2]
  polarization build-up constant: 900 s
